Tests used:
[1] = target: Bone morphogenetic protein receptor type-1A (Homo sapiens, UniProt P36894); assay: Luminescence-Based ADPGlo Kinase Activity Assay: Example 53: The assays were performed in 384-well, low volume microtiter assay plates in a final reaction volume of 6 ul. Dose-response curves were generated by incubating 10 nM of each kinase in 50 mM Hepes pH 7.5, 0.02% Tween 20, 0.02% BSA, 1 mM DTT, 10 uM Na3VO4, 10 mM ß-Glycerolphosphate, 1 mM MgCl2, 12 mM MnCl2 and 15 uM ATP for 60 min at 32° …
Chain of Bone morphogenetic protein receptor type-1A (P36894 whole entry): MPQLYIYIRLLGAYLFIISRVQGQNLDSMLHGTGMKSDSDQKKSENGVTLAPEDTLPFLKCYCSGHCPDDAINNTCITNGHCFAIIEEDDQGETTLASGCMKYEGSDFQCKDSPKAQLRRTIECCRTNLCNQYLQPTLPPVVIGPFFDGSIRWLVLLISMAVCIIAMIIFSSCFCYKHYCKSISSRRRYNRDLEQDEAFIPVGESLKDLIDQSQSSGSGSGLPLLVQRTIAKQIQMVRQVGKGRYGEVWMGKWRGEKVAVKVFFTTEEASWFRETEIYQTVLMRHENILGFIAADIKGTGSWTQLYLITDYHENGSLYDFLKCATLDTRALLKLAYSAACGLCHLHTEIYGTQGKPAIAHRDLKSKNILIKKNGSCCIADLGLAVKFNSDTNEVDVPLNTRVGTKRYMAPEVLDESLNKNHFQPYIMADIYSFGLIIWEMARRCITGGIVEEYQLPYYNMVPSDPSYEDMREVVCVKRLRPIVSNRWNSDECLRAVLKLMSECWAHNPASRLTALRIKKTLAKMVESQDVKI
Description: The amount of generated ADP is a measure of kinase activity and is quantified using the ADP-Glo Kinase Assay (Promega) according to manufacturer's instructions. ADP is converted to ATP by adding 3 ul of ADP-Glo Reagent and incubation at 32° C. for 60 min. ATP is subsequently converted into a bioluminescent signal by adding 6 ul luciferase assay reagents (Kinase detection buffer+Kinase Detection Substrate (Promega)) and further incubation at 32° C. for 60 min. […] The luminescent signal positively correlates with kinase activity.

[2] = target: Bone morphogenetic protein receptor type-1B (Homo sapiens, UniProt O00238); assay: In Vitro Enzyme Inhibition Using a Biochemical Peptide Phosphorylation Assay- Caliper Assay: Example 54:The assays were performed in 384-well, low volume microtiter assay plates in a final reaction volume of 9 ul. Dose-response curves were generated by incubating 10 nM of each kinase together with 2 uM of the fluorescently labeled substrate peptide 5-Fluo-Ahx-KKYQAEEN-T-YDEYENKK-amid (10 mM stock …
Chain of Bone morphogenetic protein receptor type-1B (O00238 whole entry): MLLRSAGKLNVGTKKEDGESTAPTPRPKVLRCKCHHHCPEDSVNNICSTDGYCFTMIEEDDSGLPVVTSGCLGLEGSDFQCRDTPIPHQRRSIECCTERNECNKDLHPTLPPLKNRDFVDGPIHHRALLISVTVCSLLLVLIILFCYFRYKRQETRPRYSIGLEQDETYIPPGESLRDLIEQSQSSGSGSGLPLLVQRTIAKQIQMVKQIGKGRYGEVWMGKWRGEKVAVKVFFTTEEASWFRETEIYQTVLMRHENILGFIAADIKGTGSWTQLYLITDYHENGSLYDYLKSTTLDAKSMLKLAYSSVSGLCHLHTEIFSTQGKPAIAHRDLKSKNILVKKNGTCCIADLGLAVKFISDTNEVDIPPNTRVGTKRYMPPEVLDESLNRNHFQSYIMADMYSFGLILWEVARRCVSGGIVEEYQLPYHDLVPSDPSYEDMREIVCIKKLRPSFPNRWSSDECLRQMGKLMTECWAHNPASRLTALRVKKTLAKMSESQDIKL

[3] = target: T1, Activin receptor type-1 (Homo sapiens, UniProt Q04771); assay: Luminescence-Based ADPGlo Kinase Activity Assay: Example 53: The assays were performed in 384-well, low volume microtiter assay plates in a final reaction volume of 6 ul. Dose-response curves were generated by incubating 10 nM of each kinase in 50 mM Hepes pH 7.5, 0.02% Tween 20, 0.02% BSA, 1 mM DTT, 10 uM Na3VO4, 10 mM ß-Glycerolphosphate, 1 mM MgCl2, 12 mM MnCl2 and 15 uM ATP for 60 min at 32° C. in the presence or absence of compound diluted in DMS. The amount of generated ADP is a measure of kinase activity and is quantified using the ADP-Glo Kinase Assay (Promega) according to manufacturer's instructions. […] and incubation at 32° C. for 60 min. ATP is subsequently converted into a bioluminescent signal by adding 6 ul luciferase assay reagents (Kinase detection buffer+Kinase Detection Substrate (Promega)) and further incubation at 32° C. for 60 min. For the measurement of luminescence a PHERAstar Multilabel Reader was used at a measurement interval time of 0.1 second (optical module for luminescence measurements in the 230 nm to 750 nm wavelength range). The luminescent signal positively correlates with kinase activity.
T1 sequence (Q04771 whole entry): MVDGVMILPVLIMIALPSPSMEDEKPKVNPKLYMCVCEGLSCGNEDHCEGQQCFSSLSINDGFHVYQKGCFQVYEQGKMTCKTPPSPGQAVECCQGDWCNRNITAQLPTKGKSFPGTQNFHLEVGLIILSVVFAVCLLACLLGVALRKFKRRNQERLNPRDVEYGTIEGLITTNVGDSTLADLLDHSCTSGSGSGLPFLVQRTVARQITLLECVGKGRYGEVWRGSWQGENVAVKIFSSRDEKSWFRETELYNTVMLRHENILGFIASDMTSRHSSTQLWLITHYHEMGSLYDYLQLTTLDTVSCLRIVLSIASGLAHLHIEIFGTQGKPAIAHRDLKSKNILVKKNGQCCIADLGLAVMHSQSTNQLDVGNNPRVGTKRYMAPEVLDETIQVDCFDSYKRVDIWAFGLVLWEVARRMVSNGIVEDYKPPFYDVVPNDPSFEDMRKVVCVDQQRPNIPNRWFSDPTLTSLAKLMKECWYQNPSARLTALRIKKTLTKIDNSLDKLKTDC

[4] = target: T1, Activin receptor type-1; assay: (§1) In Vitro Enzyme Inhibition Using a Biochemical Peptide Phosphorylation Assay- Caliper Assay: Example 54:The assays were performed in 384-well, low volume microtiter assay plates in a final reaction volume of 9 ul.
[5] = target: T2, TGF-beta receptor type-1 (Homo sapiens, UniProt P36897); assay: as §1
T2 sequence (P36897 whole entry): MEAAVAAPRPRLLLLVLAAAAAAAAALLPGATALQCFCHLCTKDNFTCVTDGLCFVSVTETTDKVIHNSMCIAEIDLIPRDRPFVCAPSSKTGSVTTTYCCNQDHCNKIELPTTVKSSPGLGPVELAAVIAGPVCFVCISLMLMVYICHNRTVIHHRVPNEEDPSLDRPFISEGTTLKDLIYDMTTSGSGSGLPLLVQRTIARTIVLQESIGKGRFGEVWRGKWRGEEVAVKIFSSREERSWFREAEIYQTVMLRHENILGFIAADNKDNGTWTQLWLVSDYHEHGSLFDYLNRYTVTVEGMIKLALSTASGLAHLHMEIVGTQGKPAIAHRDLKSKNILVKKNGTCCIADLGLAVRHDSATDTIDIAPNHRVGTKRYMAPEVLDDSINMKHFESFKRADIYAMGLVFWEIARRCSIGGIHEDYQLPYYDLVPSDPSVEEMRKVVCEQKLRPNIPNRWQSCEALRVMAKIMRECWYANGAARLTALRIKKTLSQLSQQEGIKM

[6] = target: Activin receptor type-1-like (Homo sapiens, UniProt P37023); assay: as §1
Chain of Activin receptor type-1-like (P37023 whole entry): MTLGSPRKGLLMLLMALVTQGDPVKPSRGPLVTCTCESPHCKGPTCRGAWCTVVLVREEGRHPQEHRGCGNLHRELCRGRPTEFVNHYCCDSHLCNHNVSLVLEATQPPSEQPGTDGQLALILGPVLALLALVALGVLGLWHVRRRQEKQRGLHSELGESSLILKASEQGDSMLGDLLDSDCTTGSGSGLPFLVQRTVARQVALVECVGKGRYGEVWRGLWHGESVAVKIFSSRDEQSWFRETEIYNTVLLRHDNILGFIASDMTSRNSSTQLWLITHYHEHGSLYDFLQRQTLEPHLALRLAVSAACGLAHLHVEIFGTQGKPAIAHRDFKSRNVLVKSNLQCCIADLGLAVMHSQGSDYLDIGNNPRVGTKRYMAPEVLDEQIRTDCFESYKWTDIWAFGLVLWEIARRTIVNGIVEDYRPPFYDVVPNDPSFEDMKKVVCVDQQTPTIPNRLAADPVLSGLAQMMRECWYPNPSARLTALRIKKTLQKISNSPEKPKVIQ

Molecule CC(C)CN1c2ccc(-c3cncc(-c4ccc(=O)n(C(C)C)c4)c3)cc2CS1(=O)=O has an IC50 [1] of 930 nM, an IC50 [2] of 1200 nM and an IC50 [3] of 110 nM. For the same molecule, the IC50 [4] was 160 nM, the IC50 [5] was 2400 nM and the IC50 [6] was 690 nM.

Source: ChEMBL document CHEMBL5728775, “Pyridinone derivatives and their use as selective ALK-2 inhibitors” (2021)
